Experimental findings from ChEMBL document CHEMBL1154013, “Brain-penetrating 2-aminobenzimidazole H(1)-antihistamines for the treatment of insomnia” (Bioorg Med Chem Lett, 2009) are described below.

The target in one data set is Cytochrome P450 3A4 (Homo sapiens, UniProt P08684). The data set is described as follows: Inhibition of CYP3A4. It is filed as ADME.
Data set [1] deals with Voltage-gated inwardly rectifying potassium channel KCNH2 (Homo sapiens, UniProt Q12809). The data set is described as follows: Displacement of [3H]dofetolide from human ERG channel expressed in HEK293 cells at 37 degC by liquid scintillation assay. It is filed as cell-based.
Voltage-gated inwardly rectifying potassium channel KCNH2, sequence (Q12809 whole entry): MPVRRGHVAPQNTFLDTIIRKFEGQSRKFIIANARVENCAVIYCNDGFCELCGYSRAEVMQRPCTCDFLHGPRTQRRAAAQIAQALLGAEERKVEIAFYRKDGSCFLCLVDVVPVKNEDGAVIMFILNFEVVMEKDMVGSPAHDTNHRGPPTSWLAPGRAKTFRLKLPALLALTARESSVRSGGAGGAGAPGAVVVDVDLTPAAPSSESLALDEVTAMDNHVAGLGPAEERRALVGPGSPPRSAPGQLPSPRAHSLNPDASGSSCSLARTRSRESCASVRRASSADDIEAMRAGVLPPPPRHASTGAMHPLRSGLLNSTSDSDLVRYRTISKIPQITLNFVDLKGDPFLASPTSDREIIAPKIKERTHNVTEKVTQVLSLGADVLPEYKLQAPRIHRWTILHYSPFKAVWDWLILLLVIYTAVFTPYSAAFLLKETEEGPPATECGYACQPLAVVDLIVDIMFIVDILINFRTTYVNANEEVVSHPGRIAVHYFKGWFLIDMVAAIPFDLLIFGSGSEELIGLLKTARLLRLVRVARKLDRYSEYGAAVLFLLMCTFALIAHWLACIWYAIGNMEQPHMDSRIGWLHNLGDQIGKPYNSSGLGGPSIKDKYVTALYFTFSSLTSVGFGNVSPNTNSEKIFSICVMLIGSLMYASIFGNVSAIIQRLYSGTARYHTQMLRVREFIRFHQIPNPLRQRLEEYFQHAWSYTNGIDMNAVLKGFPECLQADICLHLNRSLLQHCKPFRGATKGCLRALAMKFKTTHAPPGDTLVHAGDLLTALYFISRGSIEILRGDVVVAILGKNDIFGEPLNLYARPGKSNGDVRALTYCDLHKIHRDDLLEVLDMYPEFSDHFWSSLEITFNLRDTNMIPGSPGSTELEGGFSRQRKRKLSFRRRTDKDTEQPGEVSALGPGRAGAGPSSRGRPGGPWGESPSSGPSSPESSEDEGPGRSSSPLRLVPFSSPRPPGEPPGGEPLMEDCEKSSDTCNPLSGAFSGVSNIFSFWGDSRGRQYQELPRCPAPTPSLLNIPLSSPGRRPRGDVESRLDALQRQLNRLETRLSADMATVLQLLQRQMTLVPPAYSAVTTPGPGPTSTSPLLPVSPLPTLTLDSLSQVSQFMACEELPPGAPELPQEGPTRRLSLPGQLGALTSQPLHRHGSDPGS
For another data set, the species on record is Homo sapiens. Description: Selectivity for human muscarinic M1 receptor over human histamine H1 receptor.
In another data set the target is Histamine H1 receptor (Homo sapiens, UniProt P35367). The data set is described as follows: Displacement of [3H]pyrilamine from human histamine H1 receptor expressed in CHO Flp-In cells by liquid scintillation assay. It is filed as cell-based. A general note: Loss of bound radioactivity is the signal in a displacement assay; it reports binding, not function.
Histamine H1 receptor, sequence (P35367 whole entry): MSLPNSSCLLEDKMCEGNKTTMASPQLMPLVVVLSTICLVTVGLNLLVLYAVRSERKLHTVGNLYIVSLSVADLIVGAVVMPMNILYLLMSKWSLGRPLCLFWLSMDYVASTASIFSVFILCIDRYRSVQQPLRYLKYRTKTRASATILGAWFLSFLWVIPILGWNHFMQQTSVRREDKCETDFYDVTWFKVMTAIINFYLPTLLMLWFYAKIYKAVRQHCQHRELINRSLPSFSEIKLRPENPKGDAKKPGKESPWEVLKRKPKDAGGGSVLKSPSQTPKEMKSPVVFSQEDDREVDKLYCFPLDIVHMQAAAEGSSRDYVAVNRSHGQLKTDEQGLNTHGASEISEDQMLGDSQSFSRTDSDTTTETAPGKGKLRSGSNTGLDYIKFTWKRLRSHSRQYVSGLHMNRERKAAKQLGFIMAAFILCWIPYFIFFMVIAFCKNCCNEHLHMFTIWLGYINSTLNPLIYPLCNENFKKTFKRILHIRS
A further data set has as its target Cytochrome P450 2D6 (Homo sapiens, UniProt P10635). Description: Inhibition of CYP2D6. Type of data set: ADME.
The target of data set [2] is T1, Muscarinic acetylcholine receptor M1 (Homo sapiens, UniProt P11229).
T1 sequence (P11229 whole entry): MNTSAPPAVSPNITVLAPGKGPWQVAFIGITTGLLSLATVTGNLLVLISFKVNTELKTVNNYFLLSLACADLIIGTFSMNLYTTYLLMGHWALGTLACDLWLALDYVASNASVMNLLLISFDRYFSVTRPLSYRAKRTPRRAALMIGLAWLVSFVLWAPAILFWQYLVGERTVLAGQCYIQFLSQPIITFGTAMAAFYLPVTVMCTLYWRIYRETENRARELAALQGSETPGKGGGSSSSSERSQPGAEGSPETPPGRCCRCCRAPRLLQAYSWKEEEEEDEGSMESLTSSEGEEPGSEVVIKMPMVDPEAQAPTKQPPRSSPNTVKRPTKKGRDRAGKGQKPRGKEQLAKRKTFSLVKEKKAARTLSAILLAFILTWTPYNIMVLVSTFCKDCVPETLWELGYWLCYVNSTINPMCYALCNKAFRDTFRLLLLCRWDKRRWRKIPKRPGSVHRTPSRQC
The data set is described as follows: Displacement of [3H]N-methyl Scopolamine from human muscarinic M1 receptor expressed in CHO Flp-In cells by liquid scintillation assay. It is filed as cell-based.

A further data set deals with Plasma. Description: Drug level in rat plasma assessed per gram of tissue at 1 mg/kg, iv after 2 hrs. Type of data set: ADME, organism-based. The arrangement: dose 1 mg/kg, route intravenous. The following applies: in vivo.
Data set [3] concerns Brain. Description: Biodistribution in rat brain at 1 mg/kg, iv after 2 hrs in presence of triprolidine. Type of data set: ADME, organism-based. The arrangement: dose 1 mg/kg, route intravenous. The following applies: in vivo.
The subject of data set [4] is Brain. The data set is described as follows: Biodistribution in rat brain assessed per gram of tissue at 1 mg/kg, iv after 2 hrs. The following applies: in vivo. Set-up: dose 1 mg/kg, route intravenous. Type of data set: ADME, organism-based.
A short description of data set [5]: Ratio of drug level in brain to plasma in rat at 1 mg/kg, iv after 2 hrs. Type of data set: ADME, organism-based. The arrangement: dose 1 mg/kg, route intravenous.
Data set [6] can be described thus: Apparent permeability across human Caco-2 cell membrane. It is filed as ADME, cell-based. Background: Caco-2 monolayers are a common model of the intestinal barrier.
The next data set has as its system Caco-2. Description: Ratio of permeability from apical to basolateral side to basolateral to apical side in human Caco-2 cells. It is filed as ADME, cell-based.

Cytochrome P450 3A4, sequence (P08684 whole entry): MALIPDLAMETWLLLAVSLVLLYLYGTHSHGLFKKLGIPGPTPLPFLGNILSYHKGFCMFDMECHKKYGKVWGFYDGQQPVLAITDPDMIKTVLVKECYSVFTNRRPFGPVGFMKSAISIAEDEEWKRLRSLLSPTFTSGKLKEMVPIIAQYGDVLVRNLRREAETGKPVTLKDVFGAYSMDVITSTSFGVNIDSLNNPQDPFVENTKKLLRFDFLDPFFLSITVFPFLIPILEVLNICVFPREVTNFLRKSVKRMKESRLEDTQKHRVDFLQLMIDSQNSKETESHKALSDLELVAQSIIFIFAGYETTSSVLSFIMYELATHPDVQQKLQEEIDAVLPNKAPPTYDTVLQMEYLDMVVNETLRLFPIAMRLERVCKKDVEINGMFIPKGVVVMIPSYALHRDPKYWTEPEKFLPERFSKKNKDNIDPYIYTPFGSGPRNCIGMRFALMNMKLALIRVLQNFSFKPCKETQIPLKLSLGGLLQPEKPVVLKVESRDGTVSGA
Cytochrome P450 2D6, sequence (P10635 whole entry): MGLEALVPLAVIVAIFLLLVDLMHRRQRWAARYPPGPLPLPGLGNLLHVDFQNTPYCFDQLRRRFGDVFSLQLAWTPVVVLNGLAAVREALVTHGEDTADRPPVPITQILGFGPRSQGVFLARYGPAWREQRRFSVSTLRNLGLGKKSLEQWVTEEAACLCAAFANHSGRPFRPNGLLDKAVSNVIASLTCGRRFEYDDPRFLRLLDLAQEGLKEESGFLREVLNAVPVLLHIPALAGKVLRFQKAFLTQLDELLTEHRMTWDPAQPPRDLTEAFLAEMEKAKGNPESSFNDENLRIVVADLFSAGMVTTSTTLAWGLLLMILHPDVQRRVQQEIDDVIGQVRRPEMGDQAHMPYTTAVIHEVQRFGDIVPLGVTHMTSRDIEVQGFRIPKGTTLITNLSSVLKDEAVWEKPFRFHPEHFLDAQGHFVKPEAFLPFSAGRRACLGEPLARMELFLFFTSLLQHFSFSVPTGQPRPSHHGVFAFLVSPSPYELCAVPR

One may read the IC50 as the concentration that inhibits the measured activity by half. The term Ki denotes a dissociation constant, usually derived from enzyme kinetics or from competition with a known ligand. On to `COc1ccc(Cn2c(N3CCC(NCC4CCOCC4)CC3)nc3ccccc32)cc1`, for which the figures for the IC50 against Cytochrome P450 3A4 and at Cytochrome P450 2D6 (read-out: IC50) were over 5 µM and 16.3 µM, respectively. Besides, the Ki stood at 1460 nM in data set [1] and 14.1 nM at Histamine H1 receptor (read-out: Ki). In addition, in the data set listed under Homo sapiens, the Selectivity ratio is over 1000.
On the same counts, the results for `CN(CCO)C1CCN(c2nc3ccccc3n2Cc2ccc(F)cc2)CC1` are over 5 µM, 35.1 µM, 116 nM, 3.2 nM and over 1000.
Turning to `COc1ccc(Cn2c(N3CCC(n4cc(C)cn4)CC3)nc3ccccc32)cc1`, the IC50 against Cytochrome P450 3A4 was over 5 µM; at Cytochrome P450 2D6 (read-out: IC50), 7.32 µM. The inhibitory constant (Ki) is over 5000 nM in data set [1] and 7.1 nM on Histamine H1 receptor (read-out: Ki). The Selectivity ratio in the data set filed under Homo sapiens was over 1000.
In the case of `COCCN(C)C1CCN(c2nc3ccccc3n2Cc2ccc(F)cc2)CC1`, the results for the IC50 against Cytochrome P450 3A4 and on Cytochrome P450 2D6 (read-out: IC50) were over 5 µM and 4.44 µM, respectively. The Ki on Histamine H1 receptor (read-out: Ki) was 2.2 nM.
`CN(Cc1ccccc1)C1CCN(c2nc3ccccc3n2Cc2ccc(F)cc2)CC1`: the Ki on Histamine H1 receptor (read-out: Ki) was found to be 3.6 nM; in data set [2] (read-out: Ki), 3.58 µM. In addition, the IC50 at Cytochrome P450 2D6 is 0.805 µM.
In general, Kp refers to tissue or fluid exposure divided by exposure in the circulation. Turning to `CN(C1CCOCC1)C1CCN(c2nc3ccccc3n2Cc2ccc(F)cc2)CC1`, the results for the Drug uptake with Plasma, in the data set with Brain [3] and in the data set with Brain [4] were 18.1 ng/g, 39.4 ng and 55 ng/g, respectively. Moreover, the values for the Ki (at Histamine H1 receptor; in [2]) were 3.3 nM and 14.7 µM, respectively. Also, at Cytochrome P450 2D6 (read-out: IC50), the IC50 was 6.36 µM. Besides, the Kp at 2 h in [5] worked out at 3.5.
Regarding `CN(C1CCCCC1)C1CCN(c2nc3ccccc3n2Cc2ccc(F)cc2)CC1`, the results for the Ki (at Histamine H1 receptor (read-out: Ki); in data set [2] (read-out: Ki)) were 2.8 nM and 2.74 µM, respectively. The same compound came in with an IC50 against Cytochrome P450 2D6 of 2.05 µM.
For the compound `Fc1ccc(Cn2c(N3CCC(n4ccnc4)CC3)nc3ccccc32)cc1`, the IC50 on Cytochrome P450 3A4 came to 0.072 µM; at Cytochrome P450 2D6 (read-out: IC50), 1.12 µM. In addition, the Ki in data set [1] came out at 137 nM; at Histamine H1 receptor (read-out: Ki), 1.3 nM. In addition, the Selectivity ratio in the data set listed under Homo sapiens is over 1000.
Consider `CN(C)C1CCN(c2nc3ccccc3n2Cc2ccc(F)cc2)CC1`, for which the Drug uptake was 10.9 ng/g in the data set with Plasma, 55.3 ng in the data set with Brain [3] and 50 ng/g in the data set on Brain [4]. For the same compound, the IC50 is over 5 µM on Cytochrome P450 3A4 and 12.8 µM at Cytochrome P450 2D6 (read-out: IC50). Besides, the figures for the Ki (in data set [1]; at Histamine H1 receptor (read-out: Ki)) were 57 nM and 1.8 nM, respectively. The Selectivity ratio in the data set filed under Homo sapiens is over 1000. Moreover, the Kp at 2 h in data set [5] is 4.6.
What is called Papp is the rate of passage across a membrane or cell layer, normalised by area and donor concentration. Turning to `O=C1CCCCN1C1CCN(c2nc3ccccc3n2Cc2ccc(F)cc2)CC1`, the IC50 against Cytochrome P450 3A4 was over 5 µM; on Cytochrome P450 2D6 (read-out: IC50) it was 4.35 µM. For the same compound, the Ki in data set [1] was over 7500 nM; at Histamine H1 receptor (read-out: Ki) it was 6.6 nM. In addition, the Selectivity ratio in the data set listed under Homo sapiens was over 1000. For the same compound, in data set [6], the Papp was 12.4 ×10⁻⁶ cm/s. Moreover, the Ratio in the data set with Caco-2 is 0.6.
With `CN(c1ccccc1)C1CCN(c2nc3ccccc3n2Cc2ccc(F)cc2)CC1`, the results for the Ki (on Histamine H1 receptor; in data set [2]) were 80.5 nM and over 10 µM, respectively. For the same compound, the IC50 at Cytochrome P450 2D6 (read-out: IC50) is over 20 µM.
With `COc1ccc(Cn2c(N3CCC(N(C)CC4CCOCC4)CC3)nc3ccccc32)cc1`, the IC50 is over 5 µM against Cytochrome P450 3A4 and 8.18 µM on Cytochrome P450 2D6 (read-out: IC50). Moreover, the Ki worked out at 102 nM in data set [1] and 14.1 nM at Histamine H1 receptor (read-out: Ki). In addition, in the data set filed under Homo sapiens, the Selectivity ratio was over 1000.
Take `CN(CC1CCCCC1)C1CCN(c2nc3ccccc3n2Cc2ccc(F)cc2)CC1`: the results for the Ki (at Histamine H1 receptor; in data set [2]) were 4.4 nM and 3.86 µM, respectively. Further, on Cytochrome P450 2D6 (read-out: IC50), the IC50 is 0.36 µM.
